US8183262B2, “Pyridine derivatives as mGluR2 antagonists” (Hoffmann-La Roche Inc., priority 2007, dated 2012)

Key:
[1] = molecular target: T1, rat mGlu2 receptor (Rattus norvegicus, UniProt P31421); assay: [3H]-LY354740 binding on mGlu2 transfected CHO cell membranes; conditions: inhibition of 10 nM [3H]-LY354740 binding, membranes of CHO cells transfected with rat mGlu2, room temperature, 1 hour
T1 construct: expressed in transfected cells; membranes prepared
Excerpt: [^3H]-LY354740 Binding on mGlu2 Transfected CHO Cell Membranes. Transfection and Cell Culture
cDNA encoding the rat mGlu2 receptor protein in pBluescript II was subcloned into the eukaryotic expression vector pcDNA I-amp from Invitrogen Ltd (Paisley, UK). This vector construct (pcD1mGR2) was co-transfected with a psvNeo plasmid encoding the gene for neomycin resistance, into CHO cells by a modified calcium phosphate method described by Chen & Okayama (1988). The cells were maintained in Dulbecco's Modified Eagle medium with reduced L-glutamine (1 mM final concentration), 36 mg/L L-Proline and 10% dialysed foetal calf serum from Gibco-Invitrogen; the medium was supplemented with 500 microM α-methyl-4-carboxyphenylglycine (MCPG). Selection was made in the presence of G-418 (300 ug/ml final concentration). Clones were identified by reverse transcription of 5 μg total RNA, followed by PCR using mGlu2 receptor specific primers 5′-[…]-3′ and 5′-[…]-3′ in 60 mM Tris HCl (pH 10), 15 mM (NH4)2SO4, 2 mM MgCl2, 25 units/ml Taq Polymerase with 30 cycles annealing at 60° C. for 1 min., extention at 72° C. for 30 s, and 1 min. 95° C. denaturation.
Cells, cultured as above, were harvested and washed three times with cold PBS and frozen at −80° C. The pellet was resuspended in cold 20 mM HEPES-NaOH buffer containing 10 mM EDTA (pH 7.4), and homogenised with a polytron (Kinematica, A G, Littau, Switzerland) for 10 s at 10 000 rpm. After centrifugation for 30 min. at 4° C., the pellet was washed once with cold 20 mM HEPES-NaOH buffer containing 0.1 mM EDTA, (pH 7.4). After a second centrifugation for 30 min. at 4° C. the pellet was resuspended in cold 20 mM HEPES-NaOH buffer containing 0.1 mM EDTA, (pH 7.4). Protein content was measured using the Micro BCA method from Pierce-Perbio (Rockford, Ill., USA) using bovine serum albumin as standard.
After thawing, the membranes were resuspended in cold 50 mM Tris-HCl buffer containing 2 mM MgCl2 (pH 7.4) (binding buffer). The final concentration of the membranes in the assays was 25 μg protein/ml. Inhibition experiments were performed with membranes incubated with 10 nM [^3H]-LY354740 at room temperature, for 1 hour, in presence of various concentrations of the compound to be tested. Following the incubations, membranes were filtered onto Whatmann GF/B glass fiber filters or onto GF/B Unifilter plates and washed 5 times with cold binding buffer. Non specific binding was measured in the presence of 10 μM (2S,2′R,3′R)-2-(2′3′-Dicarboxycyclopropyl)glycine (DCG IV from Tocris, Ellisville, Mo. USA). After transfer of the filters into plastic vials containing 10 ml of Ultima-gold scintillation fluid from Perkin-Elmer (Boston, Mass., USA), the radioactivity was measured by liquid scintillation in a Tri-Carb 2500 TR counter (Packard, Zürich, Switzerland). For 96-Unifilter plates the radioactivity was measured after addition of Microscint 40 scintillation fluid (Perkin Elmer, Boston Mass.) using a TopCount NXT (Packard)
The inhibition curves were fitted with a four parameter logistic equation giving IC50 values, and Hill coefficients.

T1 sequence (P31421 19-872): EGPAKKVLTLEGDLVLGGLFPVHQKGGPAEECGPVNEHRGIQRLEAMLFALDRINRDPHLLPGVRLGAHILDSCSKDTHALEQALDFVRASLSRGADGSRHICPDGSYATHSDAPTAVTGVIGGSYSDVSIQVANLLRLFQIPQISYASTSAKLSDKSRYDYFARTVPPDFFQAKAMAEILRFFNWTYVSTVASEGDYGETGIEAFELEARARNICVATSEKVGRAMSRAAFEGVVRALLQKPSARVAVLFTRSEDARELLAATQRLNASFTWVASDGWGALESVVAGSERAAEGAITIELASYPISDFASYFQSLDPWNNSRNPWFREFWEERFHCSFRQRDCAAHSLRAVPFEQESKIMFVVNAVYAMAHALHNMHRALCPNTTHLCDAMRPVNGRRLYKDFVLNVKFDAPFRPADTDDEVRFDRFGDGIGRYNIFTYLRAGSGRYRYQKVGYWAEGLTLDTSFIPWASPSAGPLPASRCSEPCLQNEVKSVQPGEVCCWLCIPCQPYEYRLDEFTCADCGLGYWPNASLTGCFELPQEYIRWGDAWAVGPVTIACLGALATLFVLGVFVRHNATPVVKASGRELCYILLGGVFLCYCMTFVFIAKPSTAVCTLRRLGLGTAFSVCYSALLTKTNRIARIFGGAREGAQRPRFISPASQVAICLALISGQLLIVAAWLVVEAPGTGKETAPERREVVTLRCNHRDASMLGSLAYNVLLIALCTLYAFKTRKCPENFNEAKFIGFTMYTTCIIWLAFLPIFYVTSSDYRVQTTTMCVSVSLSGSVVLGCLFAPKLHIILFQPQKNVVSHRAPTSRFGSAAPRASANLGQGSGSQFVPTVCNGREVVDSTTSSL

SMILES | melting point | Ki [1]
FC(F)(F)c1cc(-c2ccc(Cl)cc2)nc(-n2ccnc2)n1 [Example 1, 4-(4-Chloro-phenyl)-2-imidazol-1-yl-6-trifluoromethyl-pyrimidine] | 175 °C | 74 nM
NS(=O)(=O)c1cccc(-c2nc(-c3nc(-c4ccc(Cl)cc4)cc(C(F)(F)F)n3)no2)c1 [Example 2, 3-{3-[4-(4-Chloro-phenyl)-6-trifluoromethyl-pyrimidin-2-yl]-[1,2,4]oxadiazol-5-yl}-benzenesulfonamide] | 273 °C | 28 nM
FC(F)(F)c1ccc(-c2cc(C(F)(F)F)nc(-n3ccnc3)n2)cc1 [Example 3, 2-Imidazol-1-yl-4-trifluoromethyl-6-(4-trifluoromethyl-phenyl)-pyrimidine] | 162 °C | 72 nM
Nc1ccc(-c2ncn(-c3cc(C(F)(F)F)cc(-c4ccc(C(F)(F)F)cc4)n3)n2)cn1 [Example 277, 5-{1-[4-Trifluoromethyl-6-(4-trifluoromethyl-phenyl)-pyridin-2-yl]-1H-[1,2,4]triazol-3-yl}-pyridin-2-ylamine] |  | 71 nM
CC(C)(C)NS(=O)(=O)c1cccc(-c2cn(-c3cc(C(F)(F)F)cc(-c4ccc(C(F)(F)F)cc4)n3)cn2)c1 [Example 280, N-tert-Butyl-3-{1-[4-trifluoromethyl-6-(4-trifluoromethyl-phenyl)-pyridin-2-yl]-1H-imidazol-4-yl}-benzenesulfonamide] |  | 3 nM
Cc1cc(-c2ccc(C(F)(F)F)cc2)cc(-c2ccnc(-c3cccc([N+](=O)[O-])c3)n2)n1 [Example 322, 4-[6-Methyl-4-(4-trifluoromethyl-phenyl)-pyridin-2-yl]-2-(3-nitro-phenyl)-pyrimidine] |  | 9 nM
Cc1cc(-c2ccc(C(F)(F)F)cc2)cc(-c2ccnc(-c3cccc(NS(C)(=O)=O)c3)n2)n1 [Example 330, N-(3-{4-[6-Methyl-4-(4-trifluoromethyl-phenyl)-pyridin-2-yl]-pyrimidin-2-yl}-phenyl)-methanesulfonamide] |  | 4 nM
Cc1cc(-c2ccc(C(F)(F)F)cc2)cc(-c2cccc(-c3cccc(NS(=O)(=O)NC(=O)OC(C)(C)C)c3)n2)n1 [Example 334, N-(tert-Butoxycarbonyl)-N′-{3-[6′-methyl-4′-(4-trifluoromethyl-phenyl)-[2,2′]bipyridinyl-6-yl]-phenyl}-sulfamide] |  | 11 nM
Cc1cc(-c2ccc(C(F)(F)F)cc2)cc(-c2ccnc(-c3cccc(NS(N)(=O)=O)c3)n2)n1 [Example 338, N-(3-{4-[6-Methyl-4-(4-trifluoromethyl-phenyl)-pyridin-2-yl]-pyrimidin-2-yl}-phenyl)-sulfamide] |  | 1 nM
Cc1cc(-c2ccc(C(F)(F)F)cc2)cc(-c2cccc(-c3cccc(S(=O)(=O)O)c3)n2)n1 [Example 345, 3-[6′-Methyl-4′-(4-trifluoromethyl-phenyl)-[2,2′]bipyridinyl-6-yl]-benzenesulfonic acid] |  | 0.7 nM
NS(=O)(=O)c1cccc(-c2cccc(-c3nc(-c4ccc(C(F)(F)F)c(F)c4)cc(C(F)(F)F)n3)c2)c1 [Example 460, 3′-[4-(3-Fluoro-4-trifluoromethyl-phenyl)-6-trifluoromethyl-pyrimidin-2-yl]-biphenyl-3-sulfonic acid amide] | 227.5 °C | 
NS(=O)(=O)c1ccc(-c2cccc(-c3nc(-c4ccc(C(F)(F)F)c(F)c4)cc(C(F)(F)F)n3)c2)s1 [Example 461, 5-{3-[4-(3-Fluoro-4-trifluoromethyl-phenyl)-6-trifluoromethyl-pyrimidin-2-yl]-phenyl}-thiophene-2-sulfonic acid amide] | 213.5 °C | 
COCC(=O)NS(=O)(=O)c1cccc(-c2cccc(-c3cc(-c4ccc(C(F)(F)F)cc4)cc(C)n3)n2)c1 [Example 462, N-(2-Methoxy-acetyl)-3-[6′-methyl-4′-(4-trifluoromethyl-phenyl)-[2,2′]bipyridinyl-6-yl]-benzenesulfonamide] | 188 °C | 
